Data reported in ChEMBL document CHEMBL3351363 (J Med Chem, 2014).

Experiments:
[1] = target: T1, Muscarinic acetylcholine receptor M1 (Homo sapiens, UniProt P11229); assay: Displacement of [3H]NMS from human M1 receptor expressed in CHO cells by microplate scintillation counting based radioligand binding assay; type: cell-based
T1 sequence (P11229 whole entry): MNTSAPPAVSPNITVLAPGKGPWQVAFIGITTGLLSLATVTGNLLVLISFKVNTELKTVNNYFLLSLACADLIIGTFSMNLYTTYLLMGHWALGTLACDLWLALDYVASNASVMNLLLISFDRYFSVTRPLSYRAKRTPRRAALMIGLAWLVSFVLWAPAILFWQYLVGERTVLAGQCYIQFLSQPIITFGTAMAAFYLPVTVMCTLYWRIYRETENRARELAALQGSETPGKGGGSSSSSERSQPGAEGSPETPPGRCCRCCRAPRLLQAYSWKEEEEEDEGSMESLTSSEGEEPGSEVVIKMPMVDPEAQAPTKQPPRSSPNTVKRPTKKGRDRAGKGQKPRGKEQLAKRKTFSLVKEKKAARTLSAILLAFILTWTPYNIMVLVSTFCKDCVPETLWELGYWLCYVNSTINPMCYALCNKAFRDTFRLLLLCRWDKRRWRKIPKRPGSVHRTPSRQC

[2] = target: T2, Muscarinic acetylcholine receptor M2 (Homo sapiens, UniProt P08172); assay: Displacement of [3H]NMS from human M2 receptor expressed in CHO cells by microplate scintillation counting based radioligand binding assay; type: cell-based
T2 sequence (P08172 whole entry): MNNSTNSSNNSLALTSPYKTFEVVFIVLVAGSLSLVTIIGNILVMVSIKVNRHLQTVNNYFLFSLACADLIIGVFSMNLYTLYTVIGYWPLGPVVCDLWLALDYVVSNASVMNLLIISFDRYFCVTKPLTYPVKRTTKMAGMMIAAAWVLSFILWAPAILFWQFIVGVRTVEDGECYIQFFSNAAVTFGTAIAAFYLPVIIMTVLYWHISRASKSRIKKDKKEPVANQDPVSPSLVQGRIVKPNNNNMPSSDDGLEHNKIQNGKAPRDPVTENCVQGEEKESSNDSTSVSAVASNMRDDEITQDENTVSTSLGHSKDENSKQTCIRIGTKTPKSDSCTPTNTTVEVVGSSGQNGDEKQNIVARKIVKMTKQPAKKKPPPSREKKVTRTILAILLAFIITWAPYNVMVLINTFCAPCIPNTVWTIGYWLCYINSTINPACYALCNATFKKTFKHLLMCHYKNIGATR

[3] = target: Muscarinic acetylcholine receptor M3 (Homo sapiens, UniProt P20309); assay: Displacement of [3H]NMS from human M3 receptor expressed in CHO cells by microplate scintillation counting based radioligand binding assay; type: cell-based
Chain of Muscarinic acetylcholine receptor M3 (P20309 whole entry): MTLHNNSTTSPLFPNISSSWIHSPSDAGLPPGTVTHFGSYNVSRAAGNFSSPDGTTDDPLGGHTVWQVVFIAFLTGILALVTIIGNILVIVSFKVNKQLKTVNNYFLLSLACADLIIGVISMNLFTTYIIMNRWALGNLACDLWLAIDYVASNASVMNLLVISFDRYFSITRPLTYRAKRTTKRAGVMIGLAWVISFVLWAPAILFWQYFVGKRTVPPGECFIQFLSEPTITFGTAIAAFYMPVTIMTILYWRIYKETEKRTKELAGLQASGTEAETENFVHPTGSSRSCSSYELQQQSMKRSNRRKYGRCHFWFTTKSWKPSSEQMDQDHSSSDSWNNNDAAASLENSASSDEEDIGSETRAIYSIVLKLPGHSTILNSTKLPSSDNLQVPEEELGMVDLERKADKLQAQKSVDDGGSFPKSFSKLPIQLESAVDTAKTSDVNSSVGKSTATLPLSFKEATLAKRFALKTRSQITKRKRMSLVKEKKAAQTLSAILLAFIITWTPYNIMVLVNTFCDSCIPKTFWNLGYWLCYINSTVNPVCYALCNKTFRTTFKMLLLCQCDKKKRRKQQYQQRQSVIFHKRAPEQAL

[4] = target: T3, Muscarinic acetylcholine receptor M4 (Homo sapiens, UniProt P08173); assay: Displacement of [3H]NMS from human M4 receptor expressed in CHO cells by microplate scintillation counting based radioligand binding assay; type: cell-based
T3 sequence (P08173 whole entry): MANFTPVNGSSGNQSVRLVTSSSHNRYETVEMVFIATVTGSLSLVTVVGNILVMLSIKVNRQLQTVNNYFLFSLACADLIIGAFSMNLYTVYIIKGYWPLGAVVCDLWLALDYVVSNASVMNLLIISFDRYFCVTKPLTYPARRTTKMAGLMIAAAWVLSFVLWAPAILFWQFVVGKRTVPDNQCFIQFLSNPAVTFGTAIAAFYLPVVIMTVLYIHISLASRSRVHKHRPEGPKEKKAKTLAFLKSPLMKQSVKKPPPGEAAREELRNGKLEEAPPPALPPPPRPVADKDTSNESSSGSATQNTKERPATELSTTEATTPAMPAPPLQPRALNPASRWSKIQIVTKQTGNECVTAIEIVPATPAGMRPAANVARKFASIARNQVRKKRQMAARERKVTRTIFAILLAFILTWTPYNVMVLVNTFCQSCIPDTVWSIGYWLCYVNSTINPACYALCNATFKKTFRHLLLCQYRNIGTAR

[5] = target: T4, Muscarinic acetylcholine receptor M5 (Homo sapiens, UniProt P08912); assay: Displacement of [3H]NMS from human M5 receptor expressed in CHO cells by microplate scintillation counting based radioligand binding assay; type: cell-based
T4 sequence (P08912 whole entry): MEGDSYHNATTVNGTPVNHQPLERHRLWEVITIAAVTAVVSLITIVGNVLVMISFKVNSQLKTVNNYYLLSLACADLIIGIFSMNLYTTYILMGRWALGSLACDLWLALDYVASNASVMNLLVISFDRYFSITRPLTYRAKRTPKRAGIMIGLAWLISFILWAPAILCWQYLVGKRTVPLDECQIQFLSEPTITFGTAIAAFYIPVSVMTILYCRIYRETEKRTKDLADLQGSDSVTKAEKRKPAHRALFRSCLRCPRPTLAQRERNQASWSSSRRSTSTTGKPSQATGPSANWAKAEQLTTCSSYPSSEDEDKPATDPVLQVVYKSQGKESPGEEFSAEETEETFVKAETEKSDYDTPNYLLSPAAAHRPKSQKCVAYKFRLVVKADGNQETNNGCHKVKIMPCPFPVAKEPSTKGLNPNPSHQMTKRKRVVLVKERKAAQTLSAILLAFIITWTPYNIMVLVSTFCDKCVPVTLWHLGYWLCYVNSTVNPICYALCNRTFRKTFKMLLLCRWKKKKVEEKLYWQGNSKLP

[6] = target: T5, Muscarinic acetylcholine receptor M4 (Homo sapiens) (UniProt P08173); assay: Antagonist activity at human M4 receptor expressed in HEK293T cells assessed as inhibition of carbachol-induced response by BRET based Gq protein engagement assay relative to untreated control; type: cell-based; conditions: HEK-293T
T5 sequence (whole entry): T3 sequence (P08173 whole entry)

[7] = target: T5, Muscarinic acetylcholine receptor M4 (Homo sapiens); assay: Antagonist activity at human M4 receptor expressed in HEK293T cells assessed as inhibition of carbachol-induced response by beta-arrestin engagement assay relative to untreated control; type: cell-based; conditions: HEK-293T
[8] = target: T5, Muscarinic acetylcholine receptor M4 (Homo sapiens); assay: Antagonist activity at human M4 receptor expressed in HEK293T cells assessed as inhibition of carbachol-induced response by BRET based Gi protein activation assay relative to untreated control; conditions: HEK-293T
[9] = target: T6, Muscarinic acetylcholine receptor M1 (Homo sapiens) (UniProt P11229); assay: Agonist activity at human M1 receptor expressed in HEK293T cells by BRET based Gq protein engagement assay relative carbachol; type: cell-based; conditions: HEK-293T
T6 sequence (whole entry): T1 sequence (P11229 whole entry)

[10] = target: T1, Muscarinic acetylcholine receptor M1; type: cell-based, HEK-293T
[11] = target: T1, Muscarinic acetylcholine receptor M1; assay: Agonist activity at human M1 receptor expressed in HEK293T cells by BRET based Gq protein activation assay; type: cell-based, HEK-293T
[12] = target: T6, Muscarinic acetylcholine receptor M1 (Homo sapiens); assay: Agonist activity at human M1 receptor expressed in HEK293T cells by BRET based Gq protein activation assay relative to carbachol; type: cell-based; conditions: HEK-293T
[13] = target: T1, Muscarinic acetylcholine receptor M1; type: cell-based, HEK-293T; remark: listed apart in the source
[14] = target: T1, Muscarinic acetylcholine receptor M1; assay: Agonist activity at human M1 receptor expressed in HEK293T cells by BRET based beta-arrestin engagement assay
[15] = target: T6, Muscarinic acetylcholine receptor M1 (Homo sapiens); assay: Agonist activity at human M1 receptor expressed in HEK293T cells by BRET based beta-arrestin engagement assay relative to carbachol; type: cell-based; conditions: HEK-293T
[16] = target: T5, Muscarinic acetylcholine receptor M4 (Homo sapiens); assay: Agonist activity at human M4 receptor expressed in HEK293T cells by BRET based Gq protein engagement assay relative to carbachol; type: cell-based; conditions: HEK-293T
[17] = target: T3, Muscarinic acetylcholine receptor M4; assay: Antagonist activity at human M4 receptor expressed in HEK293T cells assessed as inhibition of carbachol-induced response by BRET based Gq protein engagement assay; type: cell-based, HEK-293T
[18] = target: T3, Muscarinic acetylcholine receptor M4; assay: Antagonist activity at human M4 receptor expressed in HEK293T cells assessed as inhibition of carbachol-induced response by beta-arrestin engagement assay; type: cell-based, HEK-293T
[19] = target: T1, Muscarinic acetylcholine receptor M1
[20] = target: T3, Muscarinic acetylcholine receptor M4
[21] = target: T5, Muscarinic acetylcholine receptor M4 (Homo sapiens); assay: Agonist activity at human M4 receptor expressed in HEK293T cells by BRET based Gi protein activation assay relative to carbachol; conditions: HEK-293T
[22] = target: T1, Muscarinic acetylcholine receptor M1; assay: Agonist activity at human M1 receptor expressed in HEK293T cells by BRET based Gq protein engagement assay
[23] = target: T3, Muscarinic acetylcholine receptor M4; assay: Agonist activity at human M4 receptor expressed in HEK293T cells by BRET based Gq protein activation assay

| Structure (SMILES) | Ki [1] [nM] | Ki [2] [nM] | Ki [3] [nM] | Ki [4] [nM] | Ki [5] [nM] | Imax [6] [%] | Imax [7] [%] | Imax [8] [%] | other results |
| --- | --- | --- | --- | --- | --- | --- | --- | --- | --- |
| O=C1CCc2ccccc2N1CCCN1CCC(CCCO)CC1 | 2510 | 3240 | 11700 | 589 | 14500 |  |  |  |  |
| CN1CCN(CC(=O)N2c3ccccc3C(=O)Nc3cccnc32)CC1 |  |  |  |  |  | < 100 | 67 | < 100 |  |
| O=C1CCc2ccccc2N1CCCN1CCC(CCCCCCCCCCCO)CC1 | 123 | 417 | 575 | 112 | 347 |  |  |  |  |
| CN1CCC=C(c2nsnc2OCCCCCCCCCCCC2CCN(CCCN3C(=O)CCc4ccccc43)CC2)C1 | 11 | 89.1 | 10 | 6.61 | 8.71 |  |  |  |  |
| O=C1CCc2ccccc2N1CCCN1CCC(CCCCCCCCCCCCCO)CC1 | 186 | 479 | 339 | 95.5 | 339 |  |  |  |  |
| CN1CCC=C(c2nsnc2OCCCCCCCCCCCCCC2CCN(CCCN3C(=O)CCc4ccccc43)CC2)C1 | 44.7 | 85.1 | 44.7 | 14.5 | 30.9 |  |  |  |  |
| CN1CCC=C(c2nsnc2OCCCCCCCCCOc2nsnc2C2=CCCN(C)C2)C1 | 1.66 | 3.16 | 2.88 | 0.776 | 3.98 |  |  |  |  |
| CN1[C@@H]2C[C@@H](OC(=O)[C@H](CO)c3ccccc3)C[C@H]1[C@@H]1O[C@@H]12 |  |  |  |  |  | < 100 | 77 | < 100 |  |
| O=C1CCc2ccccc2N1CCCN1CCC(CCCCCCCCCO)CC1 | 282 | 214 | 200 | 155 | 851 | 92 | 90 | < 100 | Emax [9]: < 0%; IC50 [10]: 10000 nM; EC50 [11]: 295 nM; Emax [12]: 22%; IC50 [13]: 19500 nM; EC50 [14]: 245000 nM; Emax [15]: 50%; Emax [16]: < 0%; IC50 [17]: 589 nM; IC50 [18]: 813 nM; IC50 [19]: 490 nM; IC50 [20]: 3630 nM; Emax [21]: < 0% |
| O=C1CCc2ccccc2N1CCCN1CCC(CCCCCO)CC1 | 468 | 603 | 1910 | 447 | 4570 | 72 | < 100 | 38 | EC50 [22]: 112 nM; Emax [9]: 58%; IC50 [10]: 26300 nM; EC50 [11]: 204 nM; Emax [12]: 53%; IC50 [13]: 10000 nM; IC50 [17]: 12300 nM; EC50 [23]: 2000 nM; IC50 [18]: 1620 nM; IC50 [19]: 28.8 nM; IC50 [20]: 3310 nM; Emax [21]: 20% |
| CN1CCC=C(c2nsnc2OCCCC2CCN(CCCN3C(=O)CCc4ccccc43)CC2)C1 | 77.6 | 66.1 | 93.3 | 26.3 | 102 |  |  |  |  |
| CN1CCC=C(c2nsnc2OCCCCCCCCCC2CCN(CCCN3C(=O)CCc4ccccc43)CC2)C1 | 1.02 | 1.7 | 1.1 | 1.07 | 2.95 | 63 | < 100 |  | Emax [9]: < 0%; IC50 [10]: 14100 nM; EC50 [11]: 871 nM; Emax [12]: 31%; IC50 [13]: 148000 nM; EC50 [14]: 61700 nM; Emax [15]: 81%; Emax [16]: < 0%; IC50 [17]: 2450 nM; EC50 [23]: 66100 nM; IC50 [18]: 95500 nM; Emax [21]: > 100% |
| O=C1CCc2ccccc2N1CCCN1CCC(CCCCCCCCCC2CCN(CCCN3C(=O)CCc4ccccc43)CC2)CC1 | 29.5 | 79.4 | 57.5 | 32.4 | 49 |  |  |  |  |
